Laboratory results published in patent US8178658B2 (Dow AgroSciences, LLC, priority 2008, dated 2012).

Columns and labels:
[1] = test system: beet armyworm (BAW; Spodoptera exigua: Lepidoptera); assay: 128-well diet tray assay on beet armyworm (BAW 50); format: in vivo; settings: for BAW 50 ug/cm2: 128-well diet tray assay, 50 μg/cm^2 of test compound on diet, second instar BAW larvae, mortality class; for pest or weed control at 50 µg/cm2, 50 µg/cm2: Spodoptera exigua, 144 h, read-out: BAW 50 ug/cm2
Procedure, shortened: (§1)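 In the HTS format, eggs were placed on diet surface-treated with 12 μg compound per well, held dark at 29° C, and scored for mortality at 6 d (mean of six replicates). The tray format used three to five second instar larvae on diet treated at 50 μg/cm^2, 25° C, 14:10 light-dark, six days, averaged over eight wells.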

[2] = test system: beet armyworm (BAW; Spodoptera exigua: Lepidoptera); assay: 96-well microtiter plate-based high throughput (HTS) diet bioassay on beet armyworm (BAW HTS); format: in vivo; settings: for BAW HTS: BAW eggs, 12 μg test compound per well, mortality at 6 d post-treatment, mortality class; for pest or weed control at 12 µg/well, 12 µg/well: Spodoptera exigua, 144 h, read-out: BAW HTS
Procedure, shortened: as §1

[3] = 96-well microtiter plate HTS diet assay

Row | SMILES | BAW 50 ug/cm2 [1] | BAW HTS ([2]; 96-well HTS diet assay) | BAW HTS [2, 3] | BAW HTS ([2]; 96-well HTS diet bioassay) | pest or weed control at 50 µg/cm2, 50 µg/cm2 [1] | pest or weed control at 12 µg/well, 12 µg/well [2]
1 | CCCO[C@@H]1[C@@H](OC)[C@H](C)O[C@@H](OC(=O)Nc2ccc(-c3ncc(-c4ccc(OC(F)(F)F)cc4)cn3)cc2)[C@@H]1OC [Compound 236] | A (the compound was tested and at least 50 percent mortality was observed) | B (either (1) the compound was tested and less than 50 percent mortality was observed or (2) the compound was not tested) | B (either (1) the compound was tested and less than 50 percent mortality was observed or (2) the compound was not tested) | – | – | –
2 | CCCOC1C(OC)C(C)OC(ON=Cc2ccc(-c3ncn(-c4ccc(C(F)(F)C(F)(F)F)cc4)n3)cc2)C1OC (centres unmarked) [Compound 108] | A (the compound was tested and at least 50 percent mortality was observed) | – | B (either (1) the compound was tested and less than 50 percent mortality was observed or (2) the compound was not tested) | B (either (1) the compound was tested and less than 50 percent mortality was observed or (2) the compound was not tested) | – | –
3 | CCO[C@@H]1[C@@H](OC)[C@H](C)O[C@@H](OC(=O)N(C(C)=O)c2ccc(-c3ncn(-c4ccc(OC(F)(F)C(F)(F)F)cc4)n3)cc2)[C@@H]1OC [Compound 258, acetyl {4-[1-(4-pentafluoroethoxyphenyl)-1H-[1,2,4]triazol-3-yl]-phenyl}-carbamic acid (2S,3R,4R,5S,6S)-4-ethoxy-3,5-dimethoxy-6-methyl-tetrahydropyran-2-yl ester] | A (the compound was tested and at least 50 percent mortality was observed) | – | A (the compound was tested and at least 50 percent mortality was observed) | – | > 50% | > 50%
4 | CCCO[C@@H]1[C@@H](OC)[C@H](C)O[C@@H](OC(=O)Nc2ccc(-c3ncn(-c4ccc(OC(F)(F)F)cc4)n3)cc2)[C@@H]1OC [Compound 209] | A (the compound was tested and at least 50 percent mortality was observed) | A (the compound was tested and at least 50 percent mortality was observed) | A (the compound was tested and at least 50 percent mortality was observed) | – | – | –
5 | COC1C(C)OC(ON=Cc2ccc(C3=NN(c4ccc(OC(F)(F)F)cc4)C(C(=O)OCC(C)C)C3)cc2)C(OC)C1OC (mixture of isomers) [Compound 14] | B (either (1) the compound was tested and less than 50 percent mortality was observed or (2) the compound was not tested) | – | B (either (1) the compound was tested and less than 50 percent mortality was observed or (2) the compound was not tested) | B (either (1) the compound was tested and less than 50 percent mortality was observed or (2) the compound was not tested) | – | –
6 | COC1C(C)OC(ON=Cc2ccc(-n3cnc(-c4ccc(C(F)(F)F)cc4)n3)cc2)C(OC)C1OC (centres unmarked) [Compound 72] | A (the compound was tested and at least 50 percent mortality was observed) | – | A (the compound was tested and at least 50 percent mortality was observed) | A (the compound was tested and at least 50 percent mortality was observed) | – | –
7 | CCO[C@@H]1[C@@H](OC)[C@H](C)O[C@@H](OC(=O)Nc2ccc(-n3ccn(-c4ccc(OC(F)(F)F)cc4)c3=O)cc2)[C@@H]1OC [Compound 187] | A (the compound was tested and at least 50 percent mortality was observed) | A (the compound was tested and at least 50 percent mortality was observed) | A (the compound was tested and at least 50 percent mortality was observed) | – | – | –
8 | COC1C(C)OC(ON=Cc2ccc(-c3cn(-c4cc(F)cc(F)c4)cn3)cc2)C(OC)C1OC (centres unmarked) [Compound 24] | B (either (1) the compound was tested and less than 50 percent mortality was observed or (2) the compound was not tested) | – | A (the compound was tested and at least 50 percent mortality was observed) | A (the compound was tested and at least 50 percent mortality was observed) | – | –
9 | CCO[C@@H]1[C@@H](OC)[C@H](C)O[C@@H](OC(=O)Nc2ccc(C3COC(c4ccc(OC(F)(F)F)cc4)=N3)cc2)[C@@H]1OC (some centres unmarked) [Compound 186] | A (the compound was tested and at least 50 percent mortality was observed) | B (either (1) the compound was tested and less than 50 percent mortality was observed or (2) the compound was not tested) | B (either (1) the compound was tested and less than 50 percent mortality was observed or (2) the compound was not tested) | – | – | –
10 | COC1C(C)OC(ON=Cc2ccc(-c3cn(-c4cc(Br)ccc4Cl)cn3)cc2)C(OC)C1OC (centres unmarked) [Compound 34] | A (the compound was tested and at least 50 percent mortality was observed) | – | B (either (1) the compound was tested and less than 50 percent mortality was observed or (2) the compound was not tested) | B (either (1) the compound was tested and less than 50 percent mortality was observed or (2) the compound was not tested) | – | –
11 | CCOC1C(OC)C(C)OC(ON=Cc2ccc(-c3ncc(-c4cccc(OC(F)(F)F)c4)cn3)cc2)C1OC (centres unmarked) [Compound 143] | A (the compound was tested and at least 50 percent mortality was observed) | B (either (1) the compound was tested and less than 50 percent mortality was observed or (2) the compound was not tested) | B (either (1) the compound was tested and less than 50 percent mortality was observed or (2) the compound was not tested) | – | – | –
12 | CCOC1C(C)OC(ON=Cc2ccc(-c3ncn(-c4ccc(OC(F)(F)C(F)(F)F)cc4)n3)cc2)C(OCC)C1OCC (centres unmarked) [Compound 92] | A (the compound was tested and at least 50 percent mortality was observed) | – | B (either (1) the compound was tested and less than 50 percent mortality was observed or (2) the compound was not tested) | B (either (1) the compound was tested and less than 50 percent mortality was observed or (2) the compound was not tested) | – | –
13 | CCCOC1C(OC)C(C)OC(ON=Cc2ccc(-c3ncn(-c4ccc(C(F)(F)F)cn4)n3)cc2)C1OC (centres unmarked) [Compound 118] | A (the compound was tested and at least 50 percent mortality was observed) | – | B (either (1) the compound was tested and less than 50 percent mortality was observed or (2) the compound was not tested) | B (either (1) the compound was tested and less than 50 percent mortality was observed or (2) the compound was not tested) | – | –
14 | CCO[C@@H]1[C@@H](OC)[C@H](C)O[C@H](OC(=O)Nc2ccc(-n3c(C(=O)OC)nn(-c4ccc(OC(F)(F)F)cc4)c3=O)cc2)[C@@H]1OC [Compound 227] | B (either (1) the compound was tested and less than 50 percent mortality was observed or (2) the compound was not tested) | B (either (1) the compound was tested and less than 50 percent mortality was observed or (2) the compound was not tested) | B (either (1) the compound was tested and less than 50 percent mortality was observed or (2) the compound was not tested) | – | – | –
15 | COC1C(C)OC(ON=Cc2ccc(-c3cn(-c4ccc(Cl)cc4)nn3)cc2)C(OC)C1OC (centres unmarked) [Compound 75] | B (either (1) the compound was tested and less than 50 percent mortality was observed or (2) the compound was not tested) | – | A (the compound was tested and at least 50 percent mortality was observed) | A (the compound was tested and at least 50 percent mortality was observed) | – | –
16 | CCO[C@@H]1[C@@H](OC)[C@H](C)O[C@@H](OC(=S)Nc2ccc(-c3ncn(-c4ccc(OC(F)(F)C(F)(F)F)cc4)n3)cc2)[C@@H]1OC [Compound 203, {4-[1-(4-pentafluoroethyloxy-phenyl)-1H-[1,2,4]triazol-3-yl]-phenyl}-thiocarbamic acid (2S,3R,4R,5S,6S)-4-ethoxy-3,5-dimethoxy-6-methyl-tetrahydropyran-2-yl ester] | A (the compound was tested and at least 50 percent mortality was observed) | – | A (the compound was tested and at least 50 percent mortality was observed) | – | > 50% | > 50%
17 | CCO[C@@H]1[C@@H](OC)[C@H](C)O[C@@H](OC(=O)Nc2ccc(-c3ncn(-c4ccc(OC(F)(F)F)cc4)n3)cc2)[C@@H]1OC [Compound 193] | A (the compound was tested and at least 50 percent mortality was observed) | B (either (1) the compound was tested and less than 50 percent mortality was observed or (2) the compound was not tested) | B (either (1) the compound was tested and less than 50 percent mortality was observed or (2) the compound was not tested) | – | – | –
18 | CO[C@@H]1[C@@H](OC)[C@H](C)O[C@@H](OC(=O)Nc2ccc(C3=NN(c4cccc(Cl)c4)CC3)cc2)[C@@H]1OC [Compound 172] | A (the compound was tested and at least 50 percent mortality was observed) | B (either (1) the compound was tested and less than 50 percent mortality was observed or (2) the compound was not tested) | B (either (1) the compound was tested and less than 50 percent mortality was observed or (2) the compound was not tested) | – | – | –
19 | CCO[C@@H]1[C@@H](OC)[C@H](C)O[C@@H](OC(=O)Nc2ccc(C3=NN(c4ccc(OC(F)(F)F)cc4)CC3)cc2)[C@@H]1OC [Compound 178] | A (the compound was tested and at least 50 percent mortality was observed) | B (either (1) the compound was tested and less than 50 percent mortality was observed or (2) the compound was not tested) | B (either (1) the compound was tested and less than 50 percent mortality was observed or (2) the compound was not tested) | – | – | –
